This is an account of results in PubChem BioAssay (NCI).

Each structure is given as a SMILES string. Several values for one entry are separate records, joined by “and”; a condition that tells them apart may be missing. Equal values may be shown once.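 Exposure lasted 48 hours, with cells grown in 96-well plates and compounds tested at five concentrations. GI50 = concentration required for 50% inhibition of growth. TGI denotes the concentration required for complete inhibition of growth.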

Common to all, as to test: NCI tumour cell line growth inhibition, 48 h
Experiment [1] concerns SN12K1 renal.
Experiment [2] concerns OVCAR-4 ovarian.
Experiment [3] concerns DMS 114 small cell lung.
Experiment [4] has as its system NCI/ADR-RES ovarian.
The test system of experiment [5] is P388/ADR leukemia.
Experiment [6] relates to MDA-MB-435.
Experiment [7] relates to P388 leukemia.
The test system of experiment [8] is BT-549 breast.
Experiment [9] deals with U251 CNS.
The test system of experiment [10] is MDA-N.
In experiment [11] the test system is SK-MEL-2 melanoma.
In experiment [12] the test system is LXFL 529 NSCLC.
Experiment [13] deals with SNB-78 CNS.
The subject of experiment [14] is MDA-MB-231 breast.
Experiment [15] concerns HS 578T breast.

With `Cc1c2cc[n+](C)cc2c(C)c2c1[nH]c1ccccc12`, the TGI in experiment [1] is 4.3 µM and 4.19 µM; in [2], 15 µM and 10.9 µM; in experiment [3] it was 1.88 µM and 1.99 µM; in [4], more than 100 µM; in [5], more than 77.4 µM; in experiment [6], more than 100 µM. For the same compound, the TGI in experiment [7] is 24.5 µM and 22.2 µM; in experiment [8], 8.07 µM; in [9], 1.94 µM and 2.74 µM; in experiment [10] it was 19.6 µM; in experiment [11], 2.85 µM and 3.5 µM. In addition, the GI50 in experiment [4] was 48 µM and 15 µM.
For `Nc1nc(N)c2ncn(CC(CO)CC(c3ccccc3)P(=O)(O)O)c2n1` (configuration not stated), the TGI is more than 100 µM in [3]; > 100 µM and 99.3 µM in experiment [12]; more than 100 µM in [9]; more than 100 µM in experiment [13]; more than 100 µM in experiment [11]. Also, the GI50 in [12] is > 100 µM and 13.8 µM.
For `CCCCCCCCCC[C@@H](O)[C@@H]1CC[C@@H]([C@@H]2CC[C@@H]([C@@H](O)CCCCCCCCCCC(O)CC3=CC(C)OC3=O)O2)O1` (some centres not stated), the TGI in experiment [2], in experiment [4], in experiment [14] and in [15] was more than 10 µM each time.
